US6399568B1, “Cyclic tetrapeptide derivatives and medicinal use thereof” (Japan Energy Corporation, priority 1997, dated 2002)
Where two headings read alike, the source gives them in different places. Non-standard residues stand in square brackets, D forms with d. Residues, ends and D or L forms follow the SMILES beside them. ξ: configuration not given here. *: point of attachment. Aoe = N[C@@H](CCCCCC(=O)[C@@H]1CO1)C(=O)O; Asu = N[C@@H](CCCCCC(=O)O)C(=O)O; dPip = O=C(O)[C@H]1CCCCN1; Boc = CC(C)(C)OC(=O)*; ξPip = O=C(O)C1CCCCN1; NHOH = ON*

Experiments:
B16/BL6 cells [1] = assay: MHC class-I molecule expression promoting activity; assay type: cell-based, mouse; details: for conc. for 2-fold expression (nM) mean: mean of a plurality of assays; for conc. for 2-fold expression (nM) mean / Twice Promoting Concentration Cx2: 72 hours; for MHC class-I molecule expression promoting action: FIGS. 3 and 4, dependence on concentration of addition; for Twice Promoting Concentration Cx2: concentration at which MHC class-I expression is twice that without addition
Protocol: The cancer cells used were mouse melanoma cells, B16/BL6 cells, provided by, the National Cancer Institute, U.S.A. Said cells were cultivated in MEM media supplemented with 10% FBS at 37° C. in the presence of 5% carbon dioxide in an humidified incubator.
A compound to be tested was preliminarily dissolved in dimethyl sulfoxide (DMSO) and adjusted to a concentration of 100 mM or 10 mM (source solution).
Said B16/BL6 cells were inoculated on 96 well microplate at a cell density of 5000 cells per well, each well containing 200 μl of said medium. […] Thereafter, each well was once washed with PBS (phosphate buffered saline) and floating cells and the medium were removed. Then, the well was treated with 0.1% glutaraldehyde solution for 3 minutes to fix the cells.
The amount of MHC class-I molecule expressed on the surface of the fixed cells was measured by the following method. Anti-H-2K^bD^bD^d antibody, which is an antibody against mouse MHC classI molecule (commercially available from Meiji Milk Co., Ltd), was used as a primary antibody, biotinylated anti-mouse IgG+M (commercially available from Chemicon) was used as a secondary antibody, and streptavidin-β-galactosidase conjugate (commercially available from BRL) was reacted as a labelling enzyme. The amount of the thus labelled enzyme β-galactosidase was measured in a microplate reader by recording the fluorescent intensity (excitation: 365 nm, fluorescence: 450 nm) derived from the enzymaticreaction product using 4-methylumbelliferyl-β-D-galactoside (commercially available from Nacalai Tesque) as a substrate. […] The value obtained by subtracting said background level from the, actually measured value (an apparent value including the background level) was the true measurement reflecting the amount of expressed MHC class-I molecule.
A group without the addition of any compound to be tested was used as a reference group and the measurement of MHC class-I molecule expressed in said group was used as a standard value. The amount of MHC class-I molecule expressed at a concentration of addition of each test compound is shown as a relative amount, said standard value taken as one (1). For each compound to be tested, various concentrations of addition were selected to investigate the dependency of MHC class-I molecule expression promoting action on the concentration of addition.

[2] = molecular target: Mouse histone deacetylase; assay type: biochemical
Protocol: In an enzyme system using a radio-labelled acetylated histone as a substrate, histone deacetylase enzyme inhibiting activity was evaluated. The basic conditions were in accordance with the method of Yoshida et al. (J. Biol. Chem., 265, 17174-17179, 1990).
Mouse histone deacetylase to be used was partially purified from FM3A cells. Cells were suspended in HDA buffer (15 mM potassium phosphate, 5% glycerol, 0.2 mM EDTA, pH 7.5), homogenized and centrifuged (35000×g, 10 min) to collect the nuclei which in turn were homogenized in the same buffer containing 1 M (NH4)2SO4. After ultrasonic disruption and centrifugation, the concentration of (NH4)2SO4 in the supernatant was increased to 3.5 M to precipitate deacetylase enzyme proteins. This precipitate was redissolved in HDA buffer, dialyzed against HDA buffer, applied to DEAE-cellulose column and eluted in NaCl gradient. Active fractions were used as a histone deacetylase enzyme solution.
As a substrate, [^3H]acetyl histone was used. In a culture solution of FM3A cells in the presence of 5 mM sodium n-butyrate, [^3H]acetate was added, followed by incubation for 30 minutes to radio-label the histone. The histone was prepared in a conventional manner and used as a substrate solution.
An assay was performed by adding a compound to be tested at a given concentration while using a no-addition control group, and by incubating the substrate solution and the enzyme solution at 37° C. for 10 minutes (reaction volume, 100 μl). The enzyme reaction was stopped by adding 10 μl of concentrated hydrochloric acid and the excised [^3H]acetate was extracted with ethyl acetate for radioactivity measurement. The inhibiting activity was expressed by a concentration at which the enzyme activity in the control group was inhibited by 50% (50% inhibiting concentration).

[3] = test system: mouse malignant melanoma B16 cell line; assay: Cell proliferation inhibition (72 hours); assay type: cell-based; details: read-out: 50% proliferation inhibiting concentration B16 (nM) mean
Excerpt: (§1) In order to verify the action of the cyclic tetrapeptide derivative according to the present invention in inhibiting cell proliferation in cancerized cells, the action on the proliferation of the aforementioned B16/BL6 cells was investigated. The evaluation of cell proliferation rates was done utilizing a commercially available measuring kit, specifically, from Promega under the trade name CellTiter 96 Aqueous Non-Radioactive Proliferation Assay Kit. In the measuring kit, the amount of products through reduction of a reagent tetrazolium compound (3-(4,5-dimethylthiazol-2-yl)-5-(3-carboxymethoxyphenyl)-2-(4-sulfophenyl)-2H-tetrazolium, inner salt; MTS) by viable animal cells is determined by detecting spectrophotometrically the color generated from the products. Since the amount of products is proportional to the amount of viable cells, this kit is utilized to evaluate the amount of viable cells.
(§2) According to the procedure of Test Example 1, B16/BL6 cells are inoculated in a 96 well microplate and cultured for 24 hours. Then, 10 μl of a solution of the source solution of a compound to be tested which has been diluted to a predetermined amount per well is added. Thereafter, culture is continued for additional 48 hours and 20 μl of a reagent solution in the aforementioned CellTiter 96 Aqueous Non-Radioactive Proliferation Assay Kit is then added. After incubation is continued at 37° C. for 1 hour, the amount of color generation is measured as an absorbance at 490 n musing a microplate reader.
(§3) The amount of cell proliferation of a group to which a compound to be tested is added is expressed in a relative value as compared to the standard cell proliferation (100%) in a control group to which no compound to be tested is added. For each compound tested, the amounts of cell proliferation were measured at different concentrations of addition and the dependence of the quantitative cell proliferation on the concentration of addition was investigated. From the results, a concentration of addition at which the amount of cell proliferation was inhibited by 50% relative to the amount of cell proliferation in the control group without addition was determined.
(§4) The test method was in accordance with the above-mentioned procedure, except that the period of incubation after the addition of a compound was 72 hours.
(§5) As illustrative examples, results are shown for an evaluation using mouse malignant melanoma B16/BL6 and B16 cell lines; leukemia L1210 cell line, colon cancer Colon26 cell line, and liver cancer MH134 cell line as cancer cells. For the cell proliferation inhibiting action of each compound tested for these cancer cells, 50% proliferation inhibiting concentrations are shown in Table 4.

[4] = test system: colon cancer Colon26 cell line; assay: Cell proliferation inhibition (72 hours); assay type: cell-based, mouse; details: read-out: 50% proliferation inhibiting concentration Colon 26 (nM) mean
Excerpt: as §1, §2, §3, §4, §5

leukemia L1210 cell line = assay: Cell proliferation inhibition (72 hours); assay type: cell-based, mouse; details: read-out: 50% proliferation inhibiting concentration L1210 (nM) mean
Excerpt: as §1, §2, §3, §4, §5

[5] = test system: liver cancer MH134 cell line; assay: Cell proliferation inhibition (72 hours); assay type: cell-based, mouse; details: read-out: 50% proliferation inhibiting concentration MH134 (nM) mean
Excerpt: as §1, §2, §3, §4, §5

B16/BL6 cells [6] = assay: Inhibitory effect on cell proliferation (MTS, 48 hours); assay type: cell-based, mouse; details: 48 hours after addition; read-out: 50% inhibiting concentration
Excerpt: as §1, §2, §3

[7] = test system: mouse malignant melanoma B16/BL6 cell line; assay type: cell-based; details: 72 hours; read-out: 50% proliferation inhibiting concentration B16/BL6 (nM) mean
Excerpt: as §1
as §2, with “Then, 10 μl of a solution of the source solution of a compound to be tested which has been diluted to a predetermined amount per well is added.” left out
as §3, with “investigated.” for “investigated. From the results, a concentration of addition at which the amount of cell proliferation was inhibited by 50% relative to the amount of cell proliferation in the control group without addition was determined.”
as §4

histone deacetylase = assay: Histone deacetylase enzyme inhibiting activity, synthetic peptide substrate; assay type: biochemical, mouse; details: enzyme from B16/BL6 cells; [3H]acetylated histone H4 peptide; 37° C. 3 hours
Protocol: The preparation of histone deacetylase was performed essentially according to the method of Yoshida et al. (J. Biol. Chem., 265,17174-17179, 1990). The enzyme to be used was partially purified from B16/BL6 cells. The cells were suspended in HDA buffer (15 mM potassium phosphate, 5% glycerol, 0.2 mM EDTA, […], pH 7.5), homogenized and centrifuged (2500×g, 10 min) to collect the nuclei, which in turn were homogenized in the same buffer containing 1 M (NH4)2SO4. After ultrasonic disruption and centrifugation, the concentration of (NH4)2SO4 in the collected supernatant was increased to 3.5 M to precipitate histone deacetylase. This precipitate was redissolved in HDA buffer, subjected to gel filtration to replace the solvent with HDA buffer, and used as a crude histone deacetylase enzyme solution.
As a substrate, a synthetic substrate peptide, [^3H]acetylated histone H4 peptide was used. This [^3H]acetylated histone H4 peptide was obtained by synthesizing the N-terminal peptide of histone H4; […] (the C-terminal being cysteine) and radio-acetylating with ^3H -acetic anhydride.
An assay was performed by incubating the synthetic substrate solution and the enzyme solution at 37° C. for 3 hours in the presence of a compound to be tested (reaction volume, 100 μl). The reaction was stopped by adding 25 μl of 1 M HCl and 0.2 M acetic acid and [^3H]acetate excised by the enzyme reaction was extracted with ethyl acetate for radioactivity measurement. As a control group, the same procedure was repeated without addition of any test compound to the reaction system. The inhibiting activity was expressed by a concentration at which the histone deacetylase enzyme activity in the control group was inhibited by 50% (50% inhibiting concentration).

[8] = enzyme from FM3A cells, [3H]acetyl histone, 37° C. 10 minutes

## CC(=O)NCCCC[C@@H]1NC(=O)[C@H]2CCCN2C(=O)[C@H](Cc2ccccc2)NC(=O)[C@H](Cc2ccccc2)NC1=O [HDA-6, cyclo(-L-Lys(Ac)-L-Phe-L-Phe-D-Pro-)] (cyclo(FF[dP]K(Ac)))
B16/BL6 cells [1]
  conc. for 2-fold expression (nM) mean: 240000 nM
[2]; [8]
  IC50: 27800 nM

## CC(C)C[C@@H]1NC(=O)[C@@H](Cc2ccccc2)NC(=O)[C@H](CCCCCC(=O)NO)NC(=O)C2CCCCN2C1=O (stereo partly drawn) [HDA-12, cyclo(-Asu(NHOH)-D-Phe-Leu-Pip-)] (cyclo([Asu](NHOH)[dF]L[ξPip]))
B16/BL6 cells [1]
  MHC class-I molecule expression promoting action: exhibited MHC class-I molecule expression promoting action
  Twice Promoting Concentration Cx2: 3.86 nM
  conc. for 2-fold expression (nM) mean: 2.75 nM
[3]
  IC50: 262 nM
[4]
  IC50: 149 nM
Leukemia L1210 cell line
  IC50: 28.3 nM
[5]
  IC50: 112 nM
B16/BL6 cells [6]
  IC50: 12.3 nM
[7]
  IC50: 9.44 nM

## C[C@@H]1NC(=O)[C@H]2CCCN2C(=O)[C@H](CCCCCC(=O)NO)NC(=O)[C@@H](C)NC1=O [HDA-13, cyclo(-L-Asu(NHOH)-D-Pro-L-Ala-D-Ala-)] (cyclo(A[dA][Asu](NHOH)[dP]))
B16/BL6 cells [1]
  conc. for 2-fold expression (nM) mean: 406 nM
[3]
  IC50: 15400 nM
[4]
  IC50: 11000 nM
Leukemia L1210 cell line
  IC50: 2770 nM
[5]
  IC50: 7920 nM
[7]
  IC50: 866 nM

## O=C(CCCCCC[C@@H]1NC(=O)[C@H]2CCCN2C(=O)[C@H](Cc2ccccc2)NC(=O)[C@H](Cc2ccccc2)NC1=O)NO [HDA-17, cyclo(-Aaz(NHOH)-Phe-Phe-D-Pro-)]
B16/BL6 cells [1]
  MHC class-I molecule expression promoting action: exhibited MHC class-I molecule expression promoting action
  Twice Promoting Concentration Cx2: 1120 nM
  conc. for 2-fold expression (nM) mean: 990 nM
[3]
  IC50: 23500 nM
Histone deacetylase
  IC50: 24.7 nM
[2]; [8]
  IC50: 19.8 nM
[4]
  IC50: 29300 nM
Leukemia L1210 cell line
  IC50: 7380 nM
[5]
  IC50: 19900 nM
[7]
  IC50: 1260 nM

## O=C(CCCC[C@@H]1NC(=O)[C@H]2CCCN2C(=O)[C@H](Cc2ccccc2)NC(=O)[C@H](Cc2ccccc2)NC1=O)NO [HDA-18, cyclo(-Api(NHOH)-Phe-Phe-D-Pro-)]
B16/BL6 cells [1]
  MHC class-I molecule expression promoting action: exhibited MHC class-I molecule expression promoting action
  Twice Promoting Concentration Cx2: 11600 nM
  conc. for 2-fold expression (nM) mean: 10900 nM
[3]
  IC50: > 100000 nM
Histone deacetylase
  IC50: 150 nM
[2]; [8]
  IC50: 390 nM
[4]
  IC50: > 100000 nM
Leukemia L1210 cell line
  IC50: > 100000 nM
[5]
  IC50: > 100000 nM
[7]
  IC50: 59300 nM

## O=C(CCCCC[C@@H]1NC(=O)[C@H]2CCCN2C(=O)[C@H](Cc2ccccc2)NC(=O)[C@@H](Cc2ccccc2)NC1=O)NO [HDA-27, cyclo(-L-Asu(NHOH)-D-Phe-L-Phe-D-Pro-)] (cyclo([Asu](NHOH)[dF]F[dP]))
B16/BL6 cells [1]
  conc. for 2-fold expression (nM) mean: 3.01 nM
[3]
  IC50: 309 nM
Histone deacetylase
  IC50: 3.44 nM
[2]
  IC50: 1.45 nM
[4]
  IC50: 277 nM
Leukemia L1210 cell line
  IC50: 53 nM
[5]
  IC50: 236 nM
[7]
  IC50: 18 nM

## CC(C)C[C@@H]1NC(=O)[C@@H](Cc2ccccc2)NC(=O)[C@H](CCCCCC(=O)NO)NC(=O)[C@@H]2CCCN2C1=O [HDA-28, cyclo(-L-Asu(NHOH)-D-Phe-L-Leu-L-Pro-)] (cyclo([Asu](NHOH)[dF]LP))
B16/BL6 cells [1]
  conc. for 2-fold expression (nM) mean: 80.2 nM
[3]
  IC50: 3820 nM
[2]; [8]
  IC50: 6.04 nM
[4]
  IC50: 7370 nM
Leukemia L1210 cell line
  IC50: 1330 nM
[5]
  IC50: 4830 nM
[7]
  IC50: 470 nM

## CC(C)C[C@@H]1NC(=O)[C@@H](Cc2ccccc2)NC(=O)[C@H](CCCCCC(=O)NO)NC(=O)[C@H]2CCCN2C1=O [HDA-29, cyclo(-L-Asu(NHOH)-D-Phe-L-Leu-D-Pro-)] (cyclo([Asu](NHOH)[dF]L[dP]))
B16/BL6 cells [1]
  conc. for 2-fold expression (nM) mean: 5.41 nM
[3]
  IC50: 293 nM
[2]; [8]
  IC50: 1.59 nM
[4]
  IC50: 198 nM
Leukemia L1210 cell line
  IC50: 43.8 nM
[5]
  IC50: 176 nM
[7]
  IC50: 15.8 nM

## CC(C)(C)OC(=O)NCCCC[C@@H]1NC(=O)[C@H](CCCCCC(=O)NO)NC(=O)[C@H]2CCCN2C(=O)[C@H](Cc2ccccc2)NC1=O [HDA-32, cyclo(-L-Asu(NHOH)-L-Lys(Boc)-L-Phe-D-Pro-)] (cyclo([Asu](NHOH)K(Boc)F[dP]))
B16/BL6 cells [1]
  conc. for 2-fold expression (nM) mean: 773 nM
[2]; [8]
  IC50: 4.95 nM

## CCCC(=O)[O-].[Na+] [Sodium n-butyrate, reference compound]
[2]
  IC50: 119000 nM

## O=C1N[C@@H](Cc2ccccc2)C(=O)N2CCCC[C@@H]2C(=O)N[C@@H](CCCCCC(=O)[C@@H]2CO2)C(=O)N[C@H]1Cc1ccccc1 [trapoxin A, reference compound] (cyclo([Aoe]FF[dPip]))
B16/BL6 cells [1]; allowed to act on animal cells (summary statement)
  MHC class-I molecule expression promoting activity: exhibit the MHC class-I molecule expression promoting activity
B16/BL6 cells [1]
  conc. for 2-fold expression (nM) mean: 3.59 nM
[2]; [8]
  IC50: 0.47 nM
